Measurements reported in patent publication US7598255B2 (Janssen Pharmaceutica NV, priority 2005, dated 2009).

Legend:
[1] = target: T1, human recombinant 5-HT2C receptor (Homo sapiens, UniProt P28335); test: Affinity for 5HT2 receptor binding sites, h5-HT2C, [3H]mesulergine; conditions: CHO h5-HT2C membranes
T1 sequence (P28335 33-458): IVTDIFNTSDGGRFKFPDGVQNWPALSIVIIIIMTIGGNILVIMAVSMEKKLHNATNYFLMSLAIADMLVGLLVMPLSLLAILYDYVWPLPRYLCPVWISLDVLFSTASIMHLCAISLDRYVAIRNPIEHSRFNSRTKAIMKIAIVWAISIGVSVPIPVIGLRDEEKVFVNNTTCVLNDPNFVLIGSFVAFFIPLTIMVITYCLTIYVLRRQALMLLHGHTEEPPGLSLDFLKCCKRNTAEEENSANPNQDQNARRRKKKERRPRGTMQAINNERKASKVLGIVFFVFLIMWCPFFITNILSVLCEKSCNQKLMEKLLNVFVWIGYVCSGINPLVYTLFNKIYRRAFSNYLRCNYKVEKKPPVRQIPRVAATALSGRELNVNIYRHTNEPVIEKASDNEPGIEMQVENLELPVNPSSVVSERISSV
Description: (§1) Sigmoidal inhibition curves were generated and fitted by nonlinear regression analysis (GraphPad Prism).
Receptor binding was performed using the human recombinant 5-HT2A (GB: X57830), 5-HT2B (GB: Z36748) and 5-HT2C (GB: M81778) receptors. The affinity of the compounds for the 3 different human 5-HT2 receptor subtypes was evaluated by competitive radioligand binding assays using [^3H]ketanserin (h5-HT2A) or [^3H]mesulergine (h5-HT2B and h5-HT2C). The assays were performed on membranes prepared from NIH3T3 stably transfected with h5-HT2A or CHO stably transfected with h5-HT2B and h5-HT2C.

5-HT2A receptor [2] = target: T2, 5-HT2A receptor (Homo sapiens, UniProt P28223); test: In vitro functional assay for 5-HT2 receptor (intracellular calcium, FLIPR), 5-HT2A; assay type: cell-based; conditions: same cell lines as receptor binding, read-out: pKb 5-HT2A (converted)
T2 sequence (P28223 whole entry): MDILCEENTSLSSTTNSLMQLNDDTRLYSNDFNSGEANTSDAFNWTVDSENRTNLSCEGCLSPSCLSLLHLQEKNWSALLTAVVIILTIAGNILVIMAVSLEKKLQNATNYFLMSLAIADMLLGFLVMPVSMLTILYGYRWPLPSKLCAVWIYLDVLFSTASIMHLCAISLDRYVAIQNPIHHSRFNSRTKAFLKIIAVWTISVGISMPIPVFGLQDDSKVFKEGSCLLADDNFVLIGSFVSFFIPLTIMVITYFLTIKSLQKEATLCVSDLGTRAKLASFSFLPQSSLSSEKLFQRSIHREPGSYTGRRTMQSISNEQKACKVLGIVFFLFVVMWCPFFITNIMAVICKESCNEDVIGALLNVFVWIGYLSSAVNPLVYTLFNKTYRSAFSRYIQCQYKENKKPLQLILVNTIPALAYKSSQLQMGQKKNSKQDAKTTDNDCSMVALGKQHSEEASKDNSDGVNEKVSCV
Description: The 5-HT2 receptors are linked to the Gq family of G proteins and to subsequent activation of phospholipase C, induction of phosphoinositide metabolism and to an increase in intracelular calcium concentration. The same cell lines as described in the previous section (receptor binding) were used for the FLIPR experiments.

[3] = target: human recombinant 5-HT6 receptor (Homo sapiens, UniProt P50406); test: Affinity for 5-HT6 receptor binding sites, [3H]LSD; conditions: HEK-293 h5-HT6 membranes
Chain of human recombinant 5-HT6 receptor (P50406 whole entry): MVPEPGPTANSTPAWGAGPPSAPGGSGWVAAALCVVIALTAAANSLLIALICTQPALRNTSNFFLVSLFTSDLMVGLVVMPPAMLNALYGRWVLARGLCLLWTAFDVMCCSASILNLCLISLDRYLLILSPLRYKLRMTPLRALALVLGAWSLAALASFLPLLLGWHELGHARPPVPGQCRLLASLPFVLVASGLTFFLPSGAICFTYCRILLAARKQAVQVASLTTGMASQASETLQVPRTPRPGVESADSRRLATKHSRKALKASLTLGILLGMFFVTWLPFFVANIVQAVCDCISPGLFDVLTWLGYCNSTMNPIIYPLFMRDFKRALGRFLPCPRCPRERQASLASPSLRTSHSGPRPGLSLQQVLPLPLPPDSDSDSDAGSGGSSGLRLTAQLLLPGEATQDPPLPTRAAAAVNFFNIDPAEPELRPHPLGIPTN

rat 5-HT7a receptor = rat 5-HT7a receptor (Rattus norvegicus, UniProt P32305); test: Affinity for 5-HT7 receptor binding sites, radioligand binding with [3H]5-CT; conditions: membranes of HEK-293 cells with rat 5-HT7a, 1 nM [3H]5-CT
Chain of rat 5-HT7a receptor (P32305 whole entry): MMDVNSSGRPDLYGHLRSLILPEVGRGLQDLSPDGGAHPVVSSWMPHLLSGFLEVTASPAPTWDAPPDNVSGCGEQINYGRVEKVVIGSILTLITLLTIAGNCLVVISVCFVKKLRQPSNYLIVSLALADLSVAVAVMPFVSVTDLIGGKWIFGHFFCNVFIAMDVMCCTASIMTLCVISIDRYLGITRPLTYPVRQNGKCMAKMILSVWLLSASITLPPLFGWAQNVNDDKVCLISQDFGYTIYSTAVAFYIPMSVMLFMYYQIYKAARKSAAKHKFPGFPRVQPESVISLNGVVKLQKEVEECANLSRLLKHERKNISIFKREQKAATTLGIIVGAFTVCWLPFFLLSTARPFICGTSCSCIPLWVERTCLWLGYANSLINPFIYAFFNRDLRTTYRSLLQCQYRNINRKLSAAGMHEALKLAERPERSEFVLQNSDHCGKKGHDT
In short: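 Competition binding on membranes from HEK-293 cells stably expressing rat 5-HT7a, 135 μg protein/mL in 50 mM Tris-HCl pH 7.5, 5 mM EDTA. Incubated 60 min at RT with 1 nM [3H]5-CT and increasing compound concentrations; nonspecific binding with 10 μM 5-HT. Filtration and scintillation counting, in triplicate.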

5-HT2A receptor [4] = target: T2, 5-HT2A receptor; test: Affinity for 5-HT2A receptor binding sites, radioligand binding with [3H]ketanserin; conditions: read-out: Ki 5-HT2A, rat cortex membranes (assay 2) or NIH3T3 h5-HT2A membranes (assay 3), table does not say which
Description: as §1
The affinity of the compounds for the rat 5-HT2A receptor was evaluated by competitive radioligand binding assay using [^3H]ketanserine as the radioligand. […] Brain tissue (rat cortex) was homogenized in 20 volumes per wet weight tissue of Tris-HCl buffer (50 mM, pH 7.4). The total membrane fraction was collected by centrifugation and washed by subsequent centrifugation runs (25 min at 25,000 g at 4° C.). Membranes were re-suspended in Tris-HCl buffer (50 mM, pH 7.4) containing 1 nM [^3H]ketanserin. Non-specific binding was estimated in the presence of 10 μM risperidone. The incubation was terminated by rapid filtration over Whatman GF/B filters pre-soaked in 0.1% polyethylenimine, and one washing step with 1 mL ice-cold Tris-HCl buffer, pH 7.4.

5-HT2B receptor [5] = target: T3, 5-HT2B receptor (Homo sapiens, UniProt P41595); test: Affinity for 5HT2 receptor binding sites, h5-HT2B, [3H]mesulergine; conditions: CHO h5-HT2B membranes
T3 sequence (P41595 whole entry): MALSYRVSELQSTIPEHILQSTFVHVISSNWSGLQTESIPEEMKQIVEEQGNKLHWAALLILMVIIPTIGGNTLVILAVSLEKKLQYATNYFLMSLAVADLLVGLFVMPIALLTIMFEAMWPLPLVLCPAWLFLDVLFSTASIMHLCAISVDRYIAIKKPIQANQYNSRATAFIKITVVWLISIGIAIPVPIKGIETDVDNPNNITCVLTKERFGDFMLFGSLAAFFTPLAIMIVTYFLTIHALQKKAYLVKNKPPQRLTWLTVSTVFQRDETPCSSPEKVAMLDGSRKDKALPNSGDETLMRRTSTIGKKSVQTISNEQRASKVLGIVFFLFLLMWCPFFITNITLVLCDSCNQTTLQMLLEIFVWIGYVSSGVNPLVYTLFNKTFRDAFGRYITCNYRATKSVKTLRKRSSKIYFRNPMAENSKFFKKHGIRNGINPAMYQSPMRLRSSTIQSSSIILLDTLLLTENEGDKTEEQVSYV

5-HT2B receptor [6] = target: T3, 5-HT2B receptor; test: In vitro functional assay for 5-HT2 receptor (intracellular calcium, FLIPR), 5-HT2B; assay type: cell-based; conditions: same cell lines as receptor binding, read-out: pKb 5-HT2B (converted)
Description: In vitro functional properties of these compounds on the different 5-HT2 receptor substypes were determined using fluorometric imaging plate reader (FLIPR) based calcium assay as previously described (Porter, R. H. et al. Br. J. Pharmacol. 1999, 128, 13-20; Jerman, J. C. et al. Eur. J. Pharmacol. 2001, 414, 23-30). The 5-HT2 receptors are linked to the Gq family of G proteins and to subsequent activation of phospholipase C, induction of phosphoinositide metabolism and to an increase in intracelular calcium concentration. The same cell lines as described in the previous section (receptor binding) were used for the FLIPR experiments.

Row | Compound | Ki [1] [µM] | Kb (5-HT2A receptor [2]) [µM] | Ki [3] [µM] | Ki (rat 5-HT7a receptor) [µM] | Ki (5-HT2A receptor [4]) [µM] | Ki (5-HT2B receptor [5]) [µM] | Kb (5-HT2B receptor [6]) [µM]
1 | CN1CCc2nc(Cc3ccc(F)cc3)nc(-c3ccc(F)cc3)c2CC1 [Example 62, 2-(4-Fluoro-benzyl)-4-(4-fluoro-phenyl)-7-methyl-6,7,8,9-tetrahydro-5H-pyrimido[4,5-d]azepine] | 0.021 | 0.00158 | 0.027 | 5.27 | 0.00075 | 0.021 | 0.0501
2 | Cc1ccc(-c2nc(C3CCCC3)nc3c2CNCC3)cc1 [Example 18, 2-Cyclopentyl-4-p-tolyl-5,6,7,8-tetrahydro-pyrido[4,3-d]pyrimidine] | 0.06 | 0.0251 | 0.33 | 0.525 | 0.01 | 0.08 | 0.2
3 | C=C1CN(C)CCc2c1nc(Cc1ccc(F)cc1)nc2-c1ccc(F)cc1 [Example 63, 2-(4-Fluoro-benzyl)-4-(4-fluoro-phenyl)-7-methyl-9-methylene-6,7,8,9-tetrahydro-5H-pyrimido[4,5-d]azepine] | 0.046 | 0.0158 | 0.06 | > 10 | 0.0015 | 0.052 | 0.501
